Results published in PMC10580383, “Development of Melanocortin 4 Receptor Agonists by Exploiting Animal-Derived Macrocyclic, Disulfide-Rich Peptide Scaffolds” (ACS Pharmacology & Translational Science, 2023).
Where two headings read alike, the source gives them in different places. Where a SMILES comes first, the peptide text is derived from it. Bridges are numbered along the chain shown (N, C = ends). [ ]: non-standard residue; d: D form. pGlu = O=C1CC[C@@H](C(=O)O)N1

Molecular target: T1, mouse melanocortin 4 receptor (MC4R) (Mus musculus, UniProt P56450)
T1 construct: expressed in transfected cells; host or cells: HEK293 / HEK293T, transient transfection
T1 sequence (P56450 whole entry): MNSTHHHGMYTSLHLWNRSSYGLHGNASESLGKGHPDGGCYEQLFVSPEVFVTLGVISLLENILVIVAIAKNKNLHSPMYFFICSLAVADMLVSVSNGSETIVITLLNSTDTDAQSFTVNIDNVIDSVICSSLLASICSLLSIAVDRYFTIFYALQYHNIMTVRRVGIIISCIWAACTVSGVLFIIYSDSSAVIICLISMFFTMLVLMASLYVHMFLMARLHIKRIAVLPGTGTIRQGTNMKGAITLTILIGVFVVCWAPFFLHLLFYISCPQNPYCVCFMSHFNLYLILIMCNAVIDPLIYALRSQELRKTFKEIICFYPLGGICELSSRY
Assay: cAMP second messenger quantification assay (Cisbio HTRF cAMP Gs kit)
Format: cell-based
Description: Figure 3 Functional cAMP assay of synthesized peptide analogues targeting MC4R. The accumulation of adenylyl cyclase-catalyzed cAMP of (A) tachylplesin-1-like peptides (Ta1LPs, green), (B) protegrin-4-like peptides ([…], pink), (C) arenicin-3-like peptides (Ar3LPs, orange), and (D) gomesin-like peptides (GoLPs, blue) was measured in HEK293 cells transiently expressing mouse melanocortin 4 receptor (MC4R). […] Data are from three independent experiments and are shown as mean ± SEM.
Assays were performed on cells transiently expressing mouse MC4R-EGFP. BamHI and SacI restriction sites were used to clone mouse MC4R N-terminally into a pEGFP-N1 vector. Peptide ligands were assayed for […] in a 384-well format and triplicate according to the Cisbio protocol. Briefly, 5 μL containing 10,000 cells per well was incubated with 5 μL of peptide solutions prepared 2× in 1× stimulation buffer. Following an incubation of peptide ligands at 37 °C for 30 min, d2-labeled cAMP and cryptate-labeled antibody (5 μL of each) were added to the mixture and further incubated for at least 1 h at room temperature. Subsequently, cAMP levels were quantified on a Flexstation 3 (Molecular Devices, San Jose, USA) using homogeneous time-resolved fluorescence resonance energy transfer and the ratio 665/620 nm. Samples were measured in technical triplicates.
Data analysis was performed with GraphPad Prism (GraphPad Software, San Diego). The potency (EC50) and maximum efficacy (Emax) values of peptide ligands were derived from functional data fitted to three- or four-parameter nonlinear regression curves constrained to a bottom of zero.

[1] = HEK293, read-out: efficacy cAMP Emax ± SD

Row | Structure (SMILES) | EC50 | Emax (HEK293; read-out: efficacy cAMP Emax ± SD) | Emax [1]
1 | CC(C)[C@@H]1NC(=O)[C@H](CCCNC(=N)N)NC(=O)[C@H](Cc2c[nH]c3ccccc23)NC(=O)[C@H](Cc2c[nH]cn2)NC(=O)[C@@H](Cc2ccccc2)NC(=O)[C@H](Cc2c[nH]cn2)NC(=O)[C@@H]2CCCN2C(=O)[C@H](C(C)C)NC(=O)[C@@H]2CSSC[C@H](NC1=O)C(=O)N[C@@H](Cc1ccc(O)cc1)C(=O)N[C@@H](CCCNC(=N)N)C(=O)N[C@@H](CCCNC(=N)N)C(=O)N[C@H](C(=O)N[C@@H](CC(N)=O)C(N)=O)CSSC[C@H](NC(=O)[C@H](Cc1ccccc1)NC(=O)CN)C(=O)N[C@@H](Cc1c[nH]c3ccccc13)C(=O)N[C@@H](Cc1ccc(O)cc1)C(=O)N[C@@H](C(C)C)C(=O)N2 [Ar3LP3] (H-GFCWYVCVPH[dF]HWRVCYRRCN-NH2; disulfide 3-20, 7-16) | 1000 nM | 117 ± 18% | –
2 | CC(C)C[C@@H]1NC(=O)[C@H](CCCNC(=N)N)NC(=O)[C@H](CCCNC(=N)N)NC(=O)[C@@H](NC(=O)[C@@H]2CCC(=O)N2)CSSC[C@@H](C(=O)N[C@@H](CCCNC(=N)N)C(=O)NCC(=O)N[C@@H](CCCNC(=N)N)C(N)=O)NC(=O)[C@H](Cc2ccc(O)cc2)NC(=O)[C@H]([C@@H](C)O)NC(=O)[C@H](C(C)C)NC(=O)[C@@H]2CSSC[C@H](NC1=O)C(=O)N[C@@H](Cc1c[nH]cn1)C(=O)N[C@H](Cc1ccccc1)C(=O)N[C@@H](CCCNC(=N)N)C(=O)N[C@@H](Cc1c[nH]c3ccccc13)C(=O)N2 [GoLP3] ([pGlu]CRRLCH[dF]RWCVTYCRGR-NH2; disulfide 2-15, 6-11) | 39.8 nM | – | 104 ± 5%
3 | CC(C)C[C@H](NC(=O)[C@H](CCCNC(=N)N)NC(=O)CNC(=O)CNC(=O)[C@@H](N)CCCNC(=N)N)C(=O)N[C@H]1CSSC[C@@H](C(=O)N[C@H](C(=O)NCC(=O)N[C@@H](CCCNC(=N)N)C(N)=O)C(C)C)NC(=O)[C@H](Cc2ccccc2)NC(=O)[C@@H]2CSSC[C@H](NC(=O)[C@H](Cc3ccc(O)cc3)NC1=O)C(=O)N[C@@H](Cc1c[nH]cn1)C(=O)N[C@H](Cc1ccccc1)C(=O)N[C@@H](Cc1c[nH]cn1)C(=O)N[C@@H](Cc1c[nH]c3ccccc13)C(=O)N2 [Pr4LP2] (H-RGGRLCYCH[dF]HWCFCVGR-NH2; disulfide 6-15, 8-13) | 158 nM | – | 97 ± 4%
4 | CC(C)C[C@H](NC(=O)[C@H](CCCNC(=N)N)NC(=O)CNC(=O)CNC(=O)[C@@H](N)CCCNC(=N)N)C(=O)N[C@H]1CSSC[C@@H](C(=O)N[C@H](C(=O)NCC(=O)N[C@@H](CCCNC(=N)N)C(N)=O)C(C)C)NC(=O)[C@H](Cc2ccccc2)NC(=O)[C@@H]2CSSC[C@H](NC(=O)[C@H](Cc3ccc(O)cc3)NC1=O)C(=O)N[C@@H](Cc1c[nH]cn1)C(=O)N[C@H](Cc1ccccc1)C(=O)N[C@@H](CCCNC(=N)N)C(=O)N[C@@H](Cc1c[nH]c3ccccc13)C(=O)N2 [Pr4LP3] (H-RGGRLCYCH[dF]RWCFCVGR-NH2; disulfide 6-15, 8-13) | 200 nM | – | 99 ± 6%
5 | CC(C)[C@@H]1NC(=O)[C@H](CCCNC(=N)N)NC(=O)[C@H](Cc2ccccc2)NC(=O)[C@@H](NC(=O)[C@H](Cc2c[nH]c3ccccc23)NC(=O)[C@@H](N)CCCCN)CSSC[C@@H](C(=O)N[C@@H](CCCNC(=N)N)C(N)=O)NC(=O)[C@H](CCCNC(=N)N)NC(=O)[C@H](CCCNC(=N)N)NC(=O)[C@H](Cc2ccc(O)cc2)NC(=O)[C@@H]2CSSC[C@H](NC1=O)C(=O)N1CCC[C@H]1C(=O)N[C@@H](Cc1c[nH]cn1)C(=O)N[C@H](Cc1ccccc1)C(=O)N[C@@H](Cc1c[nH]cn1)C(=O)N[C@@H](Cc1c[nH]c3ccccc13)C(=O)N2 [Ta1LP1] (H-KWCFRVCPH[dF]HWCYRRCR-NH2; disulfide 3-17, 7-13) | 20 nM | – | 97 ± 4%
